Test: Adverse events and safety laboratory parameters; discontinuations
Format: in vivo, human
Settings: 2 mg group, following 1 month of treatment
Procedure: The results presented herein were obtained from a multicentre, randomized, double-blind, placebo-controlled study. The compound TH9507 was administered by subcutaneous injection daily (1 or 2 mg dose) for a three-month period. Patients were of both genders, aged 50 years or older, with stable COPD as per the 1995 American Thoracic Society criteria.
Adverse events and safety laboratory parameters (haematology, biochemistry, urinalysis) were measured using standard laboratory methods.

CC/C=C/CC(=O)N[C@@H](Cc1ccc(O)cc1)C(=O)N[C@@H](C)C(=O)N[C@@H](CC(=O)O)C(=O)N[C@@H](C)C(=O)N[C@H](C(=O)N[C@@H](Cc1ccccc1)C(=O)N[C@H](C(=O)N[C@@H](CC(N)=O)C(=O)N[C@@H](CO)C(=O)N[C@@H](Cc1ccc(O)cc1)C(=O)N[C@@H](CCCNC(=N)N)C(=O)N[C@@H](CCCCN)C(=O)N[C@H](C(=O)N[C@@H](CC(C)C)C(=O)NCC(=O)N[C@@H](CCC(N)=O)C(=O)N[C@@H](CC(C)C)C(=O)N[C@@H](CO)C(=O)N[C@@H](C)C(=O)N[C@@H](CCCNC(=N)N)C(=O)N[C@@H](CCCCN)C(=O)N[C@@H](CC(C)C)C(=O)N[C@@H](CC(C)C)C(=O)N[C@@H](CCC(N)=O)C(=O)N[C@@H](CC(=O)O)C(=O)N[C@H](C(=O)N[C@@H](CCSC)C(=O)N[C@@H](CO)C(=O)N[C@@H](CCCNC(=N)N)C(=O)N[C@@H](CCC(N)=O)C(=O)N[C@@H](CCC(N)=O)C(=O)NCC(=O)N[C@@H](CCC(=O)O)C(=O)N[C@@H](CO)C(=O)N[C@@H](CC(N)=O)C(=O)N[C@@H](CCC(N)=O)C(=O)N[C@@H](CCC(=O)O)C(=O)N[C@@H](CCCNC(=N)N)C(=O)NCC(=O)N[C@@H](C)C(=O)N[C@@H](CCCNC(=N)N)C(=O)N[C@@H](C)C(=O)N[C@@H](CCCNC(=N)N)C(=O)N[C@@H](CC(C)C)C(N)=O)[C@@H](C)CC)C(C)C)[C@@H](C)O)[C@@H](C)CC [TH9507, (hexenoyl trans-3)hGRF(1-44)NH2]
Discontinuation possibly related to study drug: one patient in the 2 mg group who showed elevated creatine phosphokinase (CPK) and serum glutamic oxaloacetic transaminase (SGOT) values
